Measurements reported in paper PMC7614687, “Modulation of the substrate specificity of the kinase PDK1 by distinct conformations of the full-length protein*” (Science signaling, 2023).
Several values for one entry are separate records, joined by “and”; a condition that tells them apart may be missing. Equal values may be shown once. Read-outs that look alike come from different tables or passages of the source.

Legend:
[1] = target: T1, PDK1_1-556 (Homo sapiens, UniProt O15530); experiment: Differential scanning fluorimetry, thermal stability of PDK1_1-556; type: binding; details: PDK1 1 μM
T1 construct: effect of HYG8 on the thermal stability (ΔTm) of PDK1_1-556 (H) and PDK1_50-359 (I); His (N); made in house; host or cells: Sf9 insect cells (baculovirus)
T1 sequence (O15530 1-556): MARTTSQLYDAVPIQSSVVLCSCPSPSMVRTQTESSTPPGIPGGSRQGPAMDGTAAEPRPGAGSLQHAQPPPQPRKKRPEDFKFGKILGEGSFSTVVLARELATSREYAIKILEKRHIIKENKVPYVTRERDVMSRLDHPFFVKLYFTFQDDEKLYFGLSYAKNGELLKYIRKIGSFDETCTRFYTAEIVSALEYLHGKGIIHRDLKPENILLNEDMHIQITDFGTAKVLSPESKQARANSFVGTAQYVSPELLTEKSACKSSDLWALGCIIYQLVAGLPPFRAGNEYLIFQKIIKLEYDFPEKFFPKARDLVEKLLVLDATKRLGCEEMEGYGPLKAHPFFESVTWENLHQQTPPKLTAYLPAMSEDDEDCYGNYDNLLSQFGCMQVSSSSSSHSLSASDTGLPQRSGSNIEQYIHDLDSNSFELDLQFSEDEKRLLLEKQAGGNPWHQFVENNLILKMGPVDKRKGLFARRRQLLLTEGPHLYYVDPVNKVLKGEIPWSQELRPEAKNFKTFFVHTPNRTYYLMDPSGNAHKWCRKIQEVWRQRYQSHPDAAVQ
Protocol: The thermal stability of PDK1 was assessed by monitoring the unfolding of PDK1 by the increase in the fluorescence of SYPRO Orange (Invitrogen) using a real-time PCR device (StepOnePlus, Applied Biosystems and BioRad CFX96) following a previously described protocol ([70]). The reactions were performed in a final volume of 10 μl in white 96-well PCR microtiter plates (Greiner) and contained 1 μM PDK1, 10 mM HEPES (pH 7.5), 150 mM NaCl, 1/1000 SYPRO Orange and 1 mM dithiothreitol. For valsartan, the assay buffer was modified to exclude NaCl. PIFtide or compounds (at a final DMSO concentration of 1%) were added to this reaction mixture. The temperature gradient was performed in steps of 0.3 °C in the range from 25 to 70 °C. To calculate the Tm values, data were exported to GraphPad Prism and curves fitted to a Boltzmann sigmoidal equation with an acceptable confidence interval of 95%. Statistical analysis was performed with Infostat software (http://www.infostat.com.ar) and GraphPad Prism by first verifying a normal distribution of pooled residuals (Shapiro-Wilks test) and homogeneity of variance (F test), and then performing a one-way ANOVA followed by the post hoc comparisons test indicated in each figure legend.

[2] = target: T2, PDK1 (Homo sapiens, UniProt O15530); experiment: Thermo Fisher "PDK1 Direct" assay (peptide Ser/Thr 07, FRET readout); type: biochemical; details: for Hill slope, PDK1 direct / IC50: 10-point titration
T2 sequence (O15530 1-556): T1 sequence (O15530 1-556)

[3] = target: T3, His-PDK1_1-556 and GST-PDK1_360-556 (Homo sapiens, UniProt O15530); experiment: AlphaScreen PDK1 dimerization assay His-PDK1_1-556 / GST-PDK1_360-556; type: binding
T3 construct: made in house; host or cells: Sf9 insect cells (His-PDK1_1-556); HEK293 cells (GST-PDK1_360-556)
T3 sequence (O15530 1-556): T1 sequence (O15530 1-556)
Protocol: (§1) The AlphaScreen® assay was performed following the general guidelines from the manufacturer (Perkin Elmer) ([29]). In short, the assay was performed in a final volume of 25 μl in white 384-well microtiter plates (Greiner) in a standard buffer containing 50 mM Tris-HCl (pH 7.4), 100 mM NaCl, 2 mM DTT, 0.01% (v/v) Tween-20 and 0.1% (w/v) BSA, with the addition of 5 μl of beads (anti-GST coated acceptor beads and streptavidin-coated donor beads; nickel chelate-coated acceptor beads and streptavidin-coated donor beads; or nickel chelate-coated acceptor beads and GSH-coated donor beads, 20 μg/ml final concentrations for each bead type). AlphaScreen assays for His-tagged proteins and GST-fusion proteins were performed using nickel chelate-coated acceptor beads and GSH-coated donor beads; alphascreen assays for His-tagged proteins and biotinylated molecules were performed using nickel chelate-coated acceptor beads and streptavidin-coated donor beads; alphascreen assays for GST-fusion proteins and biotinylated molecules were performed using anti-GST coated acceptor beads and streptavidin-coated donor beads (Perkin Elmer).
The conditions for each AlphaScreen assay were identified in cross-titration experiments for each interaction to choose the ideal pair of concentrations within the linear range of the interactions. […] His-PDK1 and GST-fusion protein in the presence or absence of the different compounds were incubated in the dark for 60 min at room temperature and the emission of light from the acceptor beads was measured in an EnVision reader (Perkin Elmer) or Spark plate reader (Tecan). […]

[4] = target: T4, GST-PDK1_1-556 (Homo sapiens, UniProt O15530); experiment: AlphaScreen biotin-PIP3 / GST-PDK1_1-556 displacement; type: binding; details: PIP3 20 nM, GST-PDK1 3 nM
T4 construct: made in house; host or cells: HEK293 cells (transient transfection of pEBG2T); peptide synthesized by Pepscan
T4 sequence (O15530 1-556): T1 sequence (O15530 1-556)
Protocol: as §1
The conditions for each AlphaScreen assay were identified in cross-titration experiments for each interaction to choose the ideal pair of concentrations within the linear range of the interactions. As required, the standard conditions were modified to use less material, to increase binding of the interacting molecules, to lower background signal, and so on. His-PDK1 and GST-fusion protein in the presence or absence of the different compounds were incubated in the dark for 60 min at room temperature and the emission of light from the acceptor beads was measured in an EnVision reader (Perkin Elmer) or Spark plate reader (Tecan). AlphaScreen assays were performed at least twice, although most experiments were performed multiple times by different researchers with different batches of purified proteins with similar results.
Biotin-PIP3 interactions with GST-PDK1_1-556 or GST-PDK1_360-556 were assessed in the standard buffer. […]

[5] = replicate point 1, read-out: % Inhibition Point 1
[6] = replicate point 2, read-out: % Inhibition Point 2
[7] = single point, N=2, read-out: Inhibition at 1 μM (%)
[8] = absence of PIFtide, read-out: IC50 (nM), displacement of His-PDK1_1-556 interaction with GST-PDK1_360-556
[9] = with PIFtide, read-out: IC50 (nM), displacement of His-PDK1_1-556 interaction with GST-PDK1_360-556 with PIFtide

Row | SMILES | Tm (°C), temperature stabilization of PDK1_1-556 ([1]; compound 1 µM) | Tm (°C), temperature stabilization of PDK1_1-556 ([1]; compound 20 µM) | inhibition at 1 µM [2, 5] | inhibition at 1 µM [2, 6] | inhibition at 1 µM [2, 7] | Hill slope, PDK1 direct [2] | IC50 [2] | IC50 [3, 8] | IC50 [3, 9] | displacement of PIP3 from GST-PDK1_1-556 [4]
1 | O=C(O[C@H]1[C@@H](OP(=O)(O)O)[C@H](OP(=O)(O)O)[C@@H](OP(=O)(O)O)[C@H](OP(=O)(O)O)[C@H]1OP(=O)(O)O)c1ccccc1 [HYG8, 2-O-benzoyl-IP5] | 11.7 °C and 11-15 °C | 13.7 °C and 13-16 °C | 97% | 98% | 98% | 1.39 | 24.5 nM | 33.3 nM | 19.5 nM | higher potency than IP5
2 | CCCCO[C@H]1[C@@H](OP(=O)(O)O)[C@H](OP(=O)(O)O)[C@@H](OP(=O)(O)O)[C@H](OP(=O)(O)O)[C@H]1OP(=O)(O)O [HYG14, 2-O-butyl-IP5] | 15.2 °C and 11-15 °C | 16.5 °C and 13-16 °C | 98% | 101% | 100% | 1.61 | 16.2 nM | 29.6 nM | 29.4 nM | almost completely displaced
